Test results from a melting point compilation (Tetko et al.; mined from patent text by program, amines drawn as free bases though some values may be those of a salt).

SMILES | melting point [°C]
O=C(O)c1cccc(Nc2nc(Oc3ccccc3)nc(Oc3ccc(Cl)cc3)n2)c1 | 244 to 247
CCc1nn(-c2cc(NC(C)=O)ccc2Cl)c(=O)n1Cc1ccc(-c2ccccc2S(=O)(=O)NC(=O)OC(C)(C)C)cc1F | 158 to 160
COc1ccc2c(c1)C(C(=O)O)=Cc1ccccc1O2 | 150
O=c1[nH]c2cc(Cl)c(Cl)cc2nc1Cl | > 300
CC(C)(C)c1cc(SC2CC(=O)OC2=O)cc(C(C)(C)C)c1O (centres undefined) | 92 to 93
O=C1NC(=O)C(Cc2ccc3cc(OCc4ccccc4F)ccc3c2)S1 (centres undefined) | 150 to 152
CS(=O)(=O)NCCn1c(=O)[nH]c2ccccc21 | 162 to 170
CC1(C)NC(C[PH](=O)O)C(C)(C)S1 (centres undefined) | 193 to 194
ClCCOc1cccc2nc[nH]c12 | 153 to 154
O=c1ccc(OS(=O)(=O)C(F)(F)F)n[nH]1 | 130 to 132
Cc1cc(-c2ccc(S(N)(=O)=O)cc2)n(-c2ccc(SSc3ccc(-n4cc(C)cc4-c4ccc(S(N)(=O)=O)cc4)cc3)cc2)c1 | 251 to 255
O=C(c1ccccc1)N1CCC(CCl)CC1 | 68 to 70
O=C(Nc1cccc2c1C(=O)c1c-2n[nH]c1-c1ccc(N2CCC(N3CCOCC3)CC2)cc1)NN1CCOCC1 | 249
CCOC(=O)C(S)CC(=O)c1ccc(Oc2ccccc2)cc1 (centres undefined) | 46 to 47.5
COC(=O)c1ccc(NC(=O)c2ccccc2-c2ccccc2)cc1Cl | 132 to 134
COc1ccc(CNc2ccnc(Cl)c2C(=O)O)cc1Cl | 228 to 230
N#Cc1ccc(S(=O)(=O)Nc2cccc3c(C#N)c[nH]c23)cc1 | 250 to 252
CNc1c(N)n(CC(C)(C)C)c(=O)[nH]c1=O | 217 to 220
CCN(CC)CCNC(=S)N(CCS(=O)(=O)c1ccccc1)C(C)C | 81.5 to 82.5
COc1ccc(Cc2nc3n(c2Cc2ccc(OC)cc2)CCS3=O)cc1 (centres undefined) | 190 to 191
CN1C(=O)CC[C@]2(C)c3ccc(-c4cccc(NC(c5ccccc5)c5ccccc5)c4)cc3CC[C@@H]12 | 109 to 111
O=C(O)c1cnn2c(C(F)(F)F)cc(-c3ccc(OC(F)(F)F)cc3)nc12 | 225
CSC(=C[N+](=O)[O-])NCCCBr | 92 to 92.5
OC1CCN(c2cc(-c3ccccc3)nc(-c3ccccc3)n2)CC1 | 158 to 160
O=CNc1ccccc1O | 129
COc1ccc(Cl)cc1C(=O)NCCc1ccc(C=CC(=O)O)cc1 | 197 to 198

SMILES | melting point [°C]
Cc1cc(C)cc(COC(=O)C(Cc2c[nH]c3ccccc23)NC(=O)C2CCCCC2)c1 (centres undefined) | 143 to 144
C#CCOc1ccc(COC(C)=O)cc1OC | 69 to 71
CCCCCCCCCC(=O)C1C(=O)CC(C)OC1=O (centres undefined) | 62 to 63
CN(C#N)C(=O)CCCC(=O)N(C)C#N | 51.4 to 52.8
CCCCc1nn(-c2cc(NC(=O)c3ccccc3)ccc2Br)c(=O)n1Cc1ccc(-c2ccccc2S(=O)(=O)NC(=O)OC(C)(C)C)cc1F | 130 to 133
CCN(CC)CCNC(=O)c1cc(Cl)c(N)cc1OCC(=O)C(C)C | 109 to 110
COc1cc(C[C@H]2NC(=O)CN(Cc3ccccc3)C2=O)ccc1C | 205 to 209
CCNC(=O)Nc1nc2cc(-c3ccc(OC)nc3)ccn2n1 | 230 to 233
CC[C@H]1CN(c2c(F)cc3c(=O)c(C(=O)O)cn([C@@H]4C[C@@H]4F)c3c2OC)C[C@H]1NC | 143 to 145
Clc1ccccc1-c1nc(Cl)n(-c2ccccc2Cl)n1 | 95.5
COc1ccc(Cn2c3ncnc4c(ncn4Cc4ccc(OC)cc4)c-3nc2=O)cc1 | 175 to 177
CC(CC1=C(c2cccc(O)c2)CCCNC1=O)N1CCCCC1 (centres undefined) | 218 to 220
COc1ccc(CNc2c(-c3cc(Cl)ccc3O)c3cc(C(F)(F)F)ccc3[nH]c2=O)cc1 | 103 to 106
N#CCCNC(=O)c1n[nH]cc1NC(=O)c1cccc(C#N)c1 | 248 to 249
COC(=O)c1cccc(NC(=S)Nc2cc(NC(=O)Nc3ccc(Cl)c(Cl)c3)ccc2OC)c1 | 193 to 194
CC(=O)C1(C(=O)N[C@H](C)c2ccccc2)CCC1 | 57 to 60
CC1=C(c2ccc(Cl)cc2)n2ncc(C(N)=O)c2NC1 | 210 to 212
CCCCCCCCCCCCC(C)(CO)CO | 67 to 68
CN(CCN1CCN(c2cccc3c2OCCO3)CC1)c1cnn(C)c(=O)c1Cl | 114 to 116
CC(Cl)C(=O)CCCCN1C(=O)c2ccccc2C1=O (centres undefined) | 61 to 63
O=c1oc(-c2ccccc2)cc(O)c1Sc1cccc(C(F)(F)F)c1 | 228 to 229
COc1ccc(I)c(CC(=O)N(C)C)c1 | 86 to 89
COc1ccc2c(n1)C1(CO2)C(=O)N(Cc2ccc(Cl)s2)c2ccccc21 (centres undefined) | 130 to 132
CC(C)Cn1cc(F)c(-n2cncn2)nc1=O | 150 to 153
CCCCCCCCCCCCCCCCSCC(CN)Oc1ccon1 (centres undefined) | 73 to 74
COC(=O)c1[nH]c(C)c(C)c1OCCCl | 122 to 123

SMILES | melting point [°C]
COCC(=O)OCn1cc(C#N)c(-c2cccc(Cl)c2Cl)c1 | 72 to 75
C#CCN1C(=O)COc2cc(F)c(-c3ccc(C(F)(F)F)n(C)c3=O)cc21 | 166 to 168
CCCC(=O)C(=CNc1ccccc1F)C(=O)OCC | 60 to 62
CSc1ccc(Cl)c(C(=O)Nc2ccc(-n3nc(C(F)(F)F)cc3C3CC3)cc2)c1 | 172 to 177
O=Cc1ccc(-c2cc(Br)ccn2)o1 | 105 to 106
CC(C)NC1=NS(=O)(=O)c2c(Cl)cc(Cl)cc2N1 | 291 to 293
COc1ccc(NN=C(Cl)C(C)=O)cc1 | 114 to 116
CC1C(=O)Nc2c(Oc3ccccc3Cl)cccc21 (centres undefined) | 138 to 139
Nc1ncnc2c1c(-c1ccc(Oc3ccccc3)cc1)cn2S(=O)(=O)C1CCCC1 | 188
CCOC(=O)CC(=O)c1ccnc(F)c1 | 66 to 67
CCCC1=C([N+](=O)[O-])C(c2ccccc2Br)c2c[nH]nc2N1 (centres undefined) | 226
CC(C)[C@H](NC(=O)OCc1ccccn1)C(=O)N[C@@H](Cc1ccccc1)[C@@H](O)C[C@H](Cc1ccccc1)NC(=O)OCc1cncs1 | 176 to 177
COC(=O)CCC(=O)c1ccc2oc3ccccc3c2c1 | 106 to 108
CCOC(=O)c1c2ccc(CC(=O)N(OC)C3COC(C)(C)O3)ccc-2c(C(=O)OCC)c1N (centres undefined) | 135 to 137
CC(C)OC(=O)Cn1c(=O)n(C)c(=O)n(-c2cc(N=c3sc(=S)n4n3CCCC4)c(F)cc2Cl)c1=O | 115 to 122
COc1cc(NS(=O)(=O)c2cccc(C(F)(F)F)c2)cc(OC)c1 | 78 to 81
C#CCc1c(-c2ccccc2)nc(C)[nH]c1=O | 220 to 225
CCn1nc(-c2ccccc2)c(C(C)=O)c(Nc2cccc(F)c2)c1=O | 176 to 178
O=C(O)c1cccc(NCCOc2cccc3ccccc23)c1 | 150 to 152
O=CNCC1=CNCN1[C@H]1CCc2c(F)cc(F)cc2C1 | 194 to 195
COC(=O)c1sc2ccc(OC)cc2c1OCC#N | 160
Clc1ccc(-n2cccn2)cc1 | 50 to 53
CCCCCCCSc1nn2c(=O)c(C)c(O)nc2s1 | 141 to 143
CCOCc1cc2c(N)cccc2cn1 | 95
C#CC12CC3CC(C#C)(C1)CC(C#C)(C3)C2 | 84 to 86
CC(C)C[C@H](NC(=O)[C@H](Cc1ccccc1)NC(=O)C1CCCCC1S)C(=O)O (some centres undefined) | 180 to 183

SMILES | melting point [°C]
CN1CCC(=C2c3ccccc3[C@@H](O)[C@@H](O)c3ccccc32)CC1 | 248 to 255
CCCCCSc1ccc(CN(O)C(N)=S)s1 | 112 to 114
COc1ccc2nc(NC(=O)C(CC3CCCC3)c3ccc(S(=O)(=O)CC(C)=O)cc3)sc2n1 (centres undefined) | 67 to 71
CN(C)S(=O)(=O)N[Si](C)(C)C | 83 to 86
COC(=O)N1CCc2ccc3cc[nH]c3c2CC1 | 169 to 171
Cn1c(C#N)c(-c2ccc(F)cc2)c2ncccc2c1=O | 258 to 259
CCOC(=O)c1cc(NCc2ccccc2)c(Nc2ccc3ccccc3c2)c(S(N)(=O)=O)c1 | 199 to 201
CN1CCN(c2cccc(-c3cnn4c(N)c(-c5ccccc5Cl)cnc34)c2)CC1 | 200 to 203
CC1(C)C(=O)N(c2ccnc(N)c2)c2cccnc21 | 210 to 211
CC(Sc1ncnc2[nH]cnc12)c1oc2ccc(Br)cc2c(=O)c1-c1ccccc1 (centres undefined) | 234 to 237
OCCOc1ccc(C2=NCCO2)cc1 | 149 to 150
CSC1=C(Sc2ccc(C)cc2)CC2C3CCC4=CC(=O)C=CC4(C)C3(F)C(O)CC12C (centres undefined) | 205 to 206
CC(C)(C)c1ccc(CNC(=O)NCc2ccc(NS(C)(=O)=O)c(F)c2)cc1 | 95
CN1C(=O)CN=C(c2ccccc2F)c2cc(NC(=O)NC(C)(C)C)ccc21 | 210
COC(=O)CN(c1ccc(OC)cc1OC)S(N)(=O)=O | 100 to 103
COC(=O)c1ccc(I)nc1 | 134 to 135
Cc1cc(SCc2ccc(-c3ccc(C(F)(F)F)cc3)cc2)c(Cl)cc1OCC(=O)O | 161 to 162
CNC(=O)C(=NOC)c1ccccc1COc1ncc(Br)cc1C | 115 to 116
COc1ccc2cccc(C(CO)CNC(C)=O)c2c1 (centres undefined) | 136 to 138
CC(C)(C)c1cc(Cl)c2c(c1)CNS(=O)(=O)O2 | 158 to 160
O=C(O)C(Cc1ccccc1F)Cc1ccccc1F | 110 to 111
CC1(C)Oc2ccc(C#N)cc2[C@@H](NC(=O)Nc2cccc(-c3ncno3)c2)[C@@H]1O | 168 to 170
O=C1SCc2c(Cl)c(Cl)c(Cl)c(Cl)c21 | 181 to 183
Cc1cc2c(-c3ccccc3)c(CN)n(C)c(=O)c2cc1C | 163 to 165
CC(NC(=O)Nc1cc(Cl)ccc1CCc1cc(C(C)(C)C)c(O)c(C(C)(C)C)c1)c1ccccc1 (centres undefined) | 167 to 168
COc1ccc(-c2cc(C(Cl)Cl)nn2-c2ccc(S(N)(=O)=O)cc2)cc1F | 190 to 193
